{"source": "patent US8962918B2", "about": "“Polynucleotide sequence of fruit softening associated A-mannosidase and its uses for enhancing fruit shelf life” (National Institute of Plant Genome Research, priority 2008, dated 2015)", "molecules": {"B1": {"name": "tomato α-mannosidase: enzyme purified from pericarp of breaker stage tomato; SEQ ID NO: 2 (protein, listed as Solanum lycopersicum)", "chain": "MKNMGKFEIWFLILMVCGLWVVEAKYMVYNTSQGIVSGKLNVHLVPHTHDDVGWLKTVDQYYVGSNNSIQVACVQNVLDSLIPALLADKNRKFIYVEQAFFQRWWRNQSPGMQSTVKQLVNSGQLESINGGWCMHDEAATHYIDMIDQTTLGHKYIKQQFNVTPRIGWQIDPFGTFCCSGIPSGSKGWIRLSFLWDALTTKDREKRKIEKSLEVIWRGSKSLSSSTQIFSGAFPQNYEPPSKFYFEVNDDNSLPVQDDVNLFDYNVQERVNDFVAAALSQANITRTNHIMWTMGTDFKYQYAHTWFRNMDKLIHYVNQDGRVNALYSSPSIYTDAKYALDESWPLKTDDYFPYADRINAYWTGYFTSRPALKLYVRMMSGYYLAARQLEFFKGRIETGPTTEILADALAIAQHHDAVSGTPKQHVADDYAKRLFIGYKQAEDLVSNSLACMVESASASGCKNPQINFKQCPLLNISYCPPTEADLAPGKKLVVVVYNALGWKRTDVVRIPVVNKNVIVEDSTGKEIESQLLPIVKESIVIRNYYAAAYFGESPTSSPKYWLVFTATVPPLGFSSYVITSGKQAVAASIPQTFYKTDGSQSDAVEVGPGNLKLLYSANGAKFTQYFNKRNQVRSSLEQSFSYYSADDGSKDDYKDIQASGAYVFRPNGSFPIHPEGKVPATILRGPLLDEVHQNINSWIYQITRVYKEKEHVEVEFTVGPIPIDNGIGKELVTQIQTDIKSNKTFYTDSNGRDFLKRVRDYRADWDLQVNQPAAGNYYPINLGLFLKDNNNEFSVLVDRSVGGSSLVDGQLELMLHRRLLNDDGRGVAEALNETVCALGKCMGLTVQGKYYIRIDSLGEGAKWRRSFGQEIYSPLLLAFTEQDGDKFTKFPVPTFTGMDPSYSLPDNVAIITLQELEDHTVLLRLAHLYEVDEDKDLSTKASVELKRLFPKRKINKIREMSLSANQERVEMEKKRLKWKAEAPSDLRDVARGGPVDPTKLMVELAPMEIRTFVIDLSQSVPEGWKSHMSL", "modifications": "Protein sequence of alpha mannosidase"}, "B2": {"name": "tomato α-mannosidase (Solanum lycopersicum) (protein)", "chain": "KYMVYNTSQGIVSGKLNVHLVPHTHDDVGWLKTVDQYYVGSNNSIQVACVQNVLDSLIPALLADKNRKFIYVEQAFFQRWWRNQSPGMQSTVKQLVNSGQLESINGGWCMHDEAATHYIDMIDQTTLGHKYIKQQFNVTPRIGWQIDPFGTFCCSGIPSGSKGWIRLSFLWDALTTKDREKRKIEKSLEVIWRGSKSLSSSTQIFSGAFPQNYEPPSKFYFEVNDDNSLPVQDDVNLFDYNVQERVNDFVAAALSQANITRTNHIMWTMGTDFKYQYAHTWFRNMDKLIHYVNQDGRVNALYSSPSIYTDAKYALDESWPLKTDDYFPYADRINAYWTGYFTSRPALKLYVRMMSGYYLAARQLEFFKGRIETGPTTEILADALAIAQHHDAVSGTPKQHVADDYAKRLFIGYKQAEDLVSNSLACMVESASASGCKNPQINFKQCPLLNISYCPPTEADLAPGKKLVVVVYNALGWKRTDVVRIPVVNKNVIVEDSTGKEIESQLLPIVKESIVIRNYYAAAYFGESPTSSPKYWLVFTATVPPLGFSSYVITSGKQAVAASIPQTFYKTDGSQSDAVEVGPGNLKLLYSANGAKFTQYFNKRNQVRSSLEQSFSYYSADDGSKDDYKDIQASGAYVFRPNGSFPIHPEGKVPATILRGPLLDEVHQNINSWIYQITRVYKEKEHVEVEFTVGPIPIDNGIGKELVTQIQTDIKSNKTFYTDSNGRDFLKRVRDYRADWDLQVNQPAAGNYYPINLGLFLKDNNNEFSVLVDRSVGGSSLVDGQLELMLHRRLLNDDGRGVAEALNETVCALGKCMGLTVQGKYYIRIDSLGEGAKWRRSFGQEIYSPLLLAFTEQDGDKFTKFPVPTFTGMDPSYSLPDNVAIITLQELEDHTVLLRLAHLYEVDEDKDLSTKASVELKRLFPKRKINKIREMSLSANQERVEMEKKRLKWKAEAPSDLRDVARGGPVDPTKLMVELAPMEIRTFVIDLSQSVPEGWKSHMSL"}}, "key": {"[1]": {"system": "α-mannosidase gene expression", "test": "Geraniol/ACC treatment of seedlings, real-time RT-PCR of mannosidase expression", "assay_type": "in vivo, tomato (Pusa Ruby)", "details": "for regulation of α-mannosidase expression: rin and/or wild type, relative to control", "excerpt": "Geraniol is an acyclic dietary monoterpene, having in vitro and in vivo antitumor activity against various cancer cell lines and is therefore considered as a new class of agents for cancer chemoprevention. It was also reported that geraniol interferes with the membrane functions of Candida albicans and Saccharomyces cervisiae. […] This instigated us to further analyze the role of geraniol on α-mannosidase induction in pleiotropic rin mutant. The rin seedlings were fed with 10% geraniol and samples collected.\nRNA was isolated according to the Lithium chloride method and quantified using nanodrop (ND-100). 5 μg of total RNA was reverse transcribed to cDNA using superscript II (Invitrogen). Quantitative RT-PCR was performed using light Cycler Version 4.05 (Roche diagnostics) with cyber green. The cycle consisted of initial 10 min Taq activation at 95° C. followed by 45 cycles, consisting of 10 s at 94° C., 10 s at 55° C. and 10 s at 72° C. Then the melt curve analysis was performed to verify the fidelity of the amplification. Using the 2^−ΔΔ CT method, the data is presented as the fold change in gene expression normalized to an endogenous reference gene and relative to the control. The gene encoding actin was used as the endogenous control.\nPusa Ruby seeds were sterilized and germinated on MS medium. After 15 days the seedlings were transferred to a liquid media containing 10 mM geraniol in 20% DMSO or 1 mM ACC (1-aminocyclopropane-1-carboxylic acid) in water. The RNA was isolated from the harvested sample and reverse transcribed to cDNA for real-time RT-PCR analysis. Expression was calculated relative to the control seedlings (0 hr)."}, "[2]": {"target": "T1, tomato α-mannosidase (Solanum lycopersicum, UniProt D3TI68)", "test": "N-linked oligosaccharide cleavage, HPAE chromatography", "assay_type": "biochemical", "details": "incubated at 37° C. overnight, Carbopac PA-1 column", "method": "(§1) The temperature and pH optimum for the enzyme was 45° C. and pH 6.0, respectively. […] To identify the nature of the tomato α-mannosidase it was resolved on SDS-PAGE and subjected to PAS staining, the protein stained positive for glycoproteins. […] In order to correlate specific activity at particular ripening stage with the protein accumulation, immunoblot analysis of all the stages was done using polyclonal antibody raised against 70 kD subunit of the protein homologus to α-mannosidase. […] Our finding was further reinforced by a report in Arabidopsis which classified α-mannosidase homologue (Q8LPJ3) into cell wall protein with a signal peptide for secretion. To decipher the role of α-mannosidase on N-glycans and their processing, we targeted three N-linked oligosaccharides (Oligomannose-3, Oligomannose-5 and Oligomannose-9) commonly found in the fruit pericarp. To verify its action on N-glycans, α-mannosidase was incubated with N-linked oligosaccharides at 37° C. overnight and the reaction mixture was resolved on Carbopac PA-1 column.\nOne μg of protein was incubated with 100 ng each of N-linked oligosaccharides (Dextra, U.K) at 37° C. overnight and the sample was filtered through PVDF membrane to remove the enzyme. 10 μl of the filtered sample was used for the analysis. An HPAE-PAD system (Dionex DX 500 BioLC) equipped with a gradient pump (GP 40), an anion exchange column (Carbopac PA-1, 4×250 mm) an eluant degas module (EDM-2) for pressurizing the eluants with argon was used for the analysis of monosaccharides. The separated monosaccharides were detected by an ED 40 detector equipped with a gold electrode and an Ag/AgCl reference electrode. The resulting chromatographic data was integrated and plotted using a PC based oracle 2 data acquisition system (Indtech Analytical, Bombay), The standard (mannose) was injected at a concentration of 100 nmoles before and after the analysis of each sample to confirm the results. This confirmed the N-glycan processing ability of mannosidase"}, "[3]": {"details": "cited from earlier work"}, "[4]": {"target": "T1, tomato α-mannosidase", "test": "Mannosidase enzyme assay and biochemical characterization", "method": "as §1\n(§2) Mannosidase was assayed in one ml of the reaction mixture consisting of 940 μl of MQ, 20 μl of 20 mM substrate (pNP-α-D-mannopyrinoside) and 20 μl aliquot of the enzyme at 37° C. for 15 min along with a blank devoid of the enzyme. The reaction was stopped by adding of 40 μl of 0.5M Na2CO3. The colour developed as result of pNP release was recorded at 405 nm and quantified using a standard curve."}, "[5]": {"substrate": "O=[N+]([O-])c1ccc(O[C@H]2O[C@H](CO)[C@@H](O)[C@H](O)[C@@H]2O)cc1", "test": "Mannosidase enzyme assay and biochemical characterization", "set-up": "species or system tomato (Solanum lycopersicum)", "details": "other: purified tomato enzyme; pH 6.0", "method": "as §1\nas §2, with “The reaction was stopped by adding of 40 μl of 0.5M Na2CO3.” left out"}}, "note": "Entries after “also recorded” stand apart in the source; their conditions may differ."}
{"molecule": "NC1(C(=O)O)CC1", "note": "[ACC, 1-aminocyclopropane-1-carboxylic acid]", "values": [{"measurement": "regulation of α-mannosidase expression", "setting": "[1]; seedlings", "value": "up regulate"}]}
{"molecule": "CC(=O)N[C@H]1[C@H](O[C@H]2[C@H](O)[C@@H](NC(C)=O)C(O)O[C@@H]2CO)O[C@H](CO)[C@@H](O[C@@H]2O[C@H](CO[C@H]3O[C@H](CO)[C@@H](O)[C@H](O)[C@@H]3O)[C@@H](O)[C@H](O[C@H]3O[C@H](CO)[C@@H](O)[C@H](O)[C@@H]3O)[C@@H]2O)[C@@H]1O", "note": "(stereo partly drawn) [Oligomannose-3]", "values": [{"measurement": "cleavage by α-mannosidase", "setting": "[2]", "value": "able to cleave terminal mannose residue/s"}]}
{"molecule": "CC(C)=CCC/C(C)=C/CO", "note": "[geraniol]", "values": [{"measurement": "α-mannosidase transcript up regulated", "setting": "[1]; rin mutant seedlings fed with 10% geraniol, after 30 min", "value": "up to 6 fold"}, {"measurement": "up-regulation in mannosidase gene expression", "setting": "[1]; seedlings, geraniol in 20% DMSO, after 30 min, compared to control (DMSO only)", "value": "up to 3 fold"}, {"measurement": "regulation of α-mannosidase expression", "setting": "[1]; seedlings", "value": "upregulated; also recorded: induced"}, {"measurement": "solubility in water", "setting": "[3]", "value": "not soluble in water"}]}
{"molecule": "CC(=O)N[C@H]1[C@H](O[C@H]2[C@H](O)[C@@H](NC(C)=O)C(O)O[C@@H]2CO)O[C@H](CO)[C@@H](O[C@@H]2O[C@H](CO[C@H]3O[C@H](CO[C@H]4O[C@H](CO)[C@@H](O)[C@H](O)[C@@H]4O[C@H]4O[C@H](CO)[C@@H](O)[C@H](O)[C@@H]4O)[C@@H](O)[C@H](O[C@H]4O[C@H](CO)[C@@H](O)[C@H](O)[C@@H]4O[C@H]4O[C@H](CO)[C@@H](O)[C@H](O)[C@@H]4O)[C@@H]3O)[C@@H](O)[C@H](O[C@H]3O[C@H](CO)[C@@H](O)[C@H](O)[C@@H]3O[C@H]3O[C@H](CO)[C@@H](O)[C@H](O)[C@@H]3O[C@H]3O[C@H](CO)[C@@H](O)[C@H](O)[C@@H]3O)[C@@H]2O)[C@@H]1O", "note": "(stereo partly drawn) [Oligomannose-9]", "values": [{"measurement": "cleavage by α-mannosidase", "setting": "[2]", "value": "able to cleave terminal mannose residue/s"}]}
{"molecule": "CC(=O)N[C@H]1[C@H](O[C@H]2[C@H](O)[C@@H](NC(C)=O)C(O)O[C@@H]2CO)O[C@H](CO)[C@@H](O[C@@H]2O[C@H](CO[C@H]3O[C@H](CO[C@H]4O[C@H](CO)[C@@H](O)[C@H](O)[C@@H]4O)[C@@H](O)[C@H](O[C@H]4O[C@H](CO)[C@@H](O)[C@H](O)[C@@H]4O)[C@@H]3O)[C@@H](O)[C@H](O[C@H]3O[C@H](CO)[C@@H](O)[C@H](O)[C@@H]3O)[C@@H]2O)[C@@H]1O", "note": "(stereo partly drawn) [Oligomannose-5]", "values": [{"measurement": "cleavage by α-mannosidase", "setting": "[2]", "value": "able to cleave terminal mannose residue/s"}]}
{"molecule": "B1", "values": [{"measurement": "pH optimum", "setting": "[4]", "value": 6.0}, {"measurement": "temperature optimum", "setting": "[4]", "value": 45, "unit": "°C"}, {"measurement": "thermal stability without considerable reduction in the activity", "setting": "[4]; for 1 hr", "value": "≤ 60", "unit": "°C"}]}
{"molecule": "B2", "values": [{"measurement": "Km", "setting": "[5]", "value": 4.6, "unit": "mM"}]}
